US9156826B2, “Asymmetrical reversible neuromuscular blocking agents of ultra-short, short, or intermediate duration” (Cornell University, priority 2012, dated 2015)
Like-named read-outs stand apart in the source and are kept apart here. Each block holds one molecule with its values, some of them ahead of it.

Columns and labels:
[1] = system: twitch responses of the extensor digitorum of the foot (peroneal nerve stimulation); assay: Neuromuscular blocking potency and duration: twitch blockade dose-response in anesthetized rhesus monkeys; assay type: in vivo, rhesus monkey (Macaca mulatta); conditions: for ED95: Macaca mulatta; for Duration (min ± SD): at the actual dose administered, injection to recovery of twitch to 95% of control
Procedure: (§1) Selected NMBA compounds were tested as described in PCT/US2010/000796 application by an inventor herein, published as WO2010/107488, which is incorporated by reference, see pages 66-78. Dose-response curves for twitch blockade by test compounds were generated as described. […] Successive doses were separated by at least three estimated half lives beyond complete recovery of the previous dose to TOF of 110-120%, which is normal for these monkeys. Only the first one or two doses yielding 5 to 99% blockade were included from any single experiment for computation of dose-response data. Comparative studies of spontaneous recovery versus antagonism/reversal were done at least 3 estimated half-lives following dose-response studies. ED50 and ED95 were computed from the regression of log dose vs. the logit of percentage blockade of twitch.
Experiments were approved by the Institutional Animal Care and Use Committee of Weill Medical College of Cornell University (New York, N.Y.) and of Albany Medical College (Albany, N.Y.), where the studies were conducted. A colony of 10 adult male monkeys (Macaca mulatta) weighing 8-18 kg was studied at ˜6 week intervals. Animals were housed and cared for in accordance with the Guide for Care and Use of Laboratory Animals (National Research Council, Washington, D.C.). They were fed a standard Old World monkey diet, enriched with fruits and vegetables, and other dietary novelties and were followed throughout the study to verify normal health by physical examination, body weight, and clinical laboratory studies (Complete Blood Count, Blood Urea Nitrogen and creatinine, and liver function tests).
(§2) On the day of each study, monkeys received ketamine (7-10 mg/kg i.m.) followed by tracheal intubation under topical anesthesia with 4% lidocaine. Ventilation was controlled at 10 mL/kg and 20 breaths/min with isoflurane (1.0-2.0%) and N2O/O2 (2:1 mixture). Ringers lactate was administered at ˜10 ml kg^−1 h^−1. Arterial pressure was monitored from a femoral, superficial tibial, or radial (22 gauge) cannula. Heart rate was measured by tachograph from the arterial pulse wave. Core temperature was kept at 36.5-38.0° C. by warming blankets. Electrocardiogram and pulse oximetry were monitored continuously.
(§3) Needle electrodes (25 gauge) transmitting square-wave pulses of 0.2 msec duration at supramaximal voltage which were generated by a Grass S-88 stimulator (Grass Instruments, Quincy, Mass.) were placed at the peroneal nerve at the knee to elicit twitch responses of the extensor digitorum of the foot at 0.15 Hz. A small slip (10-20%) of the tendon was dissected free under sterile technique and tied to a Grass FT 10 force transducer (Grass Instruments, Quincy, Mass.) at a baseline tension of 50 gm. Train-of four stimulation (TOF, 2 Hz for 2 sec) was interposed at appropriate points, especially 1-2 min prior to NMBA dosing and following recovery of twitch to 95% of baseline, where TOF was subsequently evaluated every 1-2 min.
Recordings of circulatory and neuromuscular data were made on a Grass 7B polygraph (Grass Instruments). A baseline period of 15-20 min was allowed for stabilization of recordings prior to dosing.^2
Dose-response curves for twitch blockade by gantacurium, CW 002, CW 011, cisatracurium, CW002-Cys, NB 938-69, NB 1064-81, NB 802-17 (CW 001), NB 832-65, and NB 1163-79, structures of which are all shown above, were generated as follows. […] Successive doses were separated by at least three estimated half lives beyond complete recovery of the previous dose to TOF of 110-120%, which is normal for these monkeys. Only the first one or two doses yielding 5 to 99% blockade were included from any single experiment for computation of dose-response data.
ED 50 and ED 95 were computed from the regression of log dose vs. the logit of percentage blockade of twitch.

[2] = system: twitch responses of the extensor digitorum of the foot (peroneal nerve stimulation); assay: Spontaneous recovery versus reversal of neuromuscular blockade by cysteine in monkeys; assay type: in vivo, rhesus monkey (Macaca mulatta); conditions: Table 1; reversal of the blockade by cysteine
Procedure: as §1, §2, §3
Comparative studies of spontaneous recovery versus antagonism/reversal were done at least 3 estimated half-lives following dose-response studies.

[3] = Properties of cysteine solutions (solubility, natural pH); assay type: physicochemical; conditions: cysteine in its base form
Procedure: To accomplish the reversal of a neuromuscular blockade generated by one of these agents, cysteine is administered by intravenous injection. However, the natural pH of cysteine hydrochloride solutions at concentrations of 50 mg/ml or more in aqueous solution (e.g., 0.9% saline) is very low, ranging from about pH 0.8 to about pH 1.0. Moreover, cysteine is not soluble at concentrations greater than 50 mg/ml in its base form, but higher concentrations of cysteine are more conveniently administered for reversal of neuromuscular blockades. For example, bolus administration of volumes greater than 50 ml over a time period of 5-10 sec is generally not convenient in an operating room. Therefore, to be administered to patients, cysteine solutions have been developed that have higher concentrations and higher pH values as described herein.

[4] = Table 1, calculated dose for 95% block of twitch, monkeys, read-out: ED 95

Compound: COc1ccc2c(c1)CC[N@@+](C)(CCCOC(=O)/C=C\C(=O)OCCC[N+]1(Cc3ccc(OC)c(OC)c3)CCOCC1)[C@@H]2Cc1ccc(OC)c(OC)c1 [Compound 1759-85]
ED95 [1, 4]: 0.22 mg/kg
Duration (min ± SD) ([1]; Table 1): 5.4 ± 1.3 min
Reversibility (Cysteine) [2]: Yes

Compound: COc1ccc(C[C@@H]2c3cc(OC)c(OC)cc3CC[N@@+]2(C)CCCOC(=O)/C=C\C(=O)OCCC[N+]2(Cc3ccc4c(c3)OCCO4)CCOCC2)cc1OC [Compound 1521-78]
ED95 [1]: 0.05 mg/kg
Duration (min ± SD) ([1]; Table 1): 12.1 ± 2.1 min
Reversibility (Cysteine) [2]: Yes

Compound: COc1ccc(C[C@@H]2c3cc(OC)c(OC)cc3CC[N@@+]2(C)CCCOC(=O)/C=C\C(=O)OCCC[N+]2(Cc3ccc(OC)c(OC)c3)CCCC2)cc1OC [Compound 1390-80]
ED95 [1, 4]: 0.07 mg/kg
Duration (min ± SD) ([1]; Table 1): 9.0 ± 2.1 min
Reversibility (Cysteine) [2]: Yes

Compound: COc1cc2c(cc1OC)[C@@H](Cc1cc(OC)c(OC)c(OC)c1)[N@+](C)(CCCOC(=O)/C(Cl)=C/C(=O)OCCC[N+]1(Cc3cc(OC)c(OC)c(OC)c3)CCCCC1)CC2 [Compound 1343-05]
ED95 [1]: 0.07 mg/kg
Duration (min ± SD) ([1]; Table 1): 6.7 ± 2.1 min
Reversibility (Cysteine) [2]: Yes

solubility [3]: ≤ 50 mg/mL
Compound: N[C@@H](CS)C(=O)O [cysteine]

Compound: COc1ccc(C[C@@H]2c3cc(OC)c(OC)cc3CC[N@@+]2(C)CCCOC(=O)/C(Cl)=C/C(=O)OCCC[N+]2(Cc3cc(OC)c(OC)c(OC)c3)CCOCC2)cc1OC [Compound 1566-22]
ED95 [1]: 0.19 mg/kg
Duration (min ± SD) ([1]; Table 1): 3.7 ± 0.3 min
Reversibility (Cysteine) [2]: Yes

Compound: COc1ccc(C[N+]2(CCCOC(=O)/C=C\C(=O)OCCC[N@+]3(C)CCc4cc(OC)c(OC)cc4[C@H]3Cc3ccc(OC)c(OC)c3)CCCC2)cc1 [Compound 1521-28]
ED95 [1]: 0.335 mg/kg
Duration (min ± SD) ([1]; Table 1): 6.5 min
Reversibility (Cysteine) [2]: Yes

Compound: COc1ccc(C[C@@H]2c3cc(OC)c(OC)cc3CC[N@@+]2(C)CCCOC(=O)/C=C\C(=O)OCCC[N+]2(Cc3cc(OC)c(OC)c(OC)c3)CCCC2)cc1OC [Compound 1343-13]
ED95 [1]: 0.06 mg/kg
Duration (min ± SD) ([1]; Table 1): 8.8 ± 2.6 min
Reversibility (Cysteine) [2]: Yes
